# According to patent US7973043B2, “Combination therapy for depression, prevention of suicide, and various medical and psychiatric conditions” (priority 2002, dated 2011):
# Legend:
# [1] = before the X-ray changes; cited from earlier work
# [2] = combined data from many studies; cited from earlier work
# [3] = cited from earlier work; for annual risk of TD as fraction of the risk associated with haloperidol: relative to haloperidol
# D2 receptor = D2 receptor (Homo sapiens, UniProt P14416); details: relative to risperidone and olanzapine; cited from earlier work
# Sequence of D2 receptor (P14416 whole entry): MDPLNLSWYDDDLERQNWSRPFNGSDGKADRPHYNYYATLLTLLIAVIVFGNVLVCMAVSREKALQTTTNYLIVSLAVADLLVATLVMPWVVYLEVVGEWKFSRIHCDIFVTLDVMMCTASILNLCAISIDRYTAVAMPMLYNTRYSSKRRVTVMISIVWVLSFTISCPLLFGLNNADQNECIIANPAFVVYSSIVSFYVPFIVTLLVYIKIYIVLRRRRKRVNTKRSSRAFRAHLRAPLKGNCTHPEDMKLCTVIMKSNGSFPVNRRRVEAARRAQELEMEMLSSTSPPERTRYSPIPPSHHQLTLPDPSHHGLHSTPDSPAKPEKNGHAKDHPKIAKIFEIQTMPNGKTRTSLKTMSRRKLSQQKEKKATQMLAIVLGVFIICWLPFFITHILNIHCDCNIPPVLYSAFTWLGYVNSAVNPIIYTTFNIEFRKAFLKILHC
# [4] = antipsychotic alone; cited from earlier work
structure (smiles),measurement,setting,value
N[C@@H]1CONC1=O [DCS],antidepressant effect,[1],prompt antidepressant effects
Cc1cc2c(s1)Nc1ccccc1N=C2N1CCN(C)CC1 [olanzapine],relative risk of drug-induced acute EPS in declining order,[2],risperidone >ziprasidone >=olanzapine >quetiapine
same,One year risk of TD,[3]; all patients,0.52%
same,annual risk of TD as fraction of the risk associated with haloperidol,[3],about 1/12
OCCOCCN1CCN(C2=Nc3ccccc3Sc3ccccc32)CC1 [quetiapine],adverse effect,hypothetical cases,lightheadedness
same,time until suicidality vanishes,"second hypothetical case, MDD, quetiapine 50 mg added to paroxetine 20 mg q d",24 h
same,relative risk of drug-induced acute EPS in declining order,[2],risperidone >ziprasidone >=olanzapine >quetiapine
same,dissociation from the dopamine receptor,D2 receptor,fast dissociation
Cc1nc2n(c(=O)c1CCN1CCC(c3noc4cc(F)ccc34)CC1)CCCC2 [risperidone],activity in the chronic mild stress (CMS) model,[4],ineffective
same,annual risk of TD as fraction of the risk associated with haloperidol,[3],⅙
O=C1Cc2cc(CCN3CCN(c4nsc5ccccc45)CC3)c(Cl)cc2N1 [ziprasidone],relative risk of drug-induced acute EPS in declining order,[2],risperidone >ziprasidone >=olanzapine >quetiapine
